Data reported in patent US10906890B2, “Triazole phenyl compounds as agonists of the APJ receptor” (AMGEN INC., priority 2016, dated 2021).
pEC50: −log10 of the molar value.

Biological target: human APJ receptor (Homo sapiens (Human), UniProt P35414)
Assay: [35S]GTPγS binding assay on membranes from CHO cells stably expressing human APJ receptor
Assay type: biochemical
Settings: means of several independent experiments, read-out: Activity hAPJ SPA EC50 IP
Procedure: The human APJ receptor was cloned by polymerase chain reaction and the gene encoding the receptor was subcloned in pFLAG-CMV™-3 expression vector (Sigma, Saint Louis, Mo. USA) in-house at Amgen. A GTPγS binding assay was performed on membranes prepared from CHO cells stably expressing human APJ receptor. The optimum experimental conditions for the concentrations of GDP, MgCl2, and NaCl in the assay buffer were initially determined. […] Incubation was at RT for 90 min and the microplate was read using a ViewLux™ ultra HTS Microplate Imager (PerkinElmer, Inc.). All the results presented are means of several independent experiments and analyzed by non-linear regression methods using the commercially available program Prism (GraphPad, San Diego, Calif.) providing the EC50 values detailed in Table 28.

Chain of human APJ receptor (P35414 whole entry): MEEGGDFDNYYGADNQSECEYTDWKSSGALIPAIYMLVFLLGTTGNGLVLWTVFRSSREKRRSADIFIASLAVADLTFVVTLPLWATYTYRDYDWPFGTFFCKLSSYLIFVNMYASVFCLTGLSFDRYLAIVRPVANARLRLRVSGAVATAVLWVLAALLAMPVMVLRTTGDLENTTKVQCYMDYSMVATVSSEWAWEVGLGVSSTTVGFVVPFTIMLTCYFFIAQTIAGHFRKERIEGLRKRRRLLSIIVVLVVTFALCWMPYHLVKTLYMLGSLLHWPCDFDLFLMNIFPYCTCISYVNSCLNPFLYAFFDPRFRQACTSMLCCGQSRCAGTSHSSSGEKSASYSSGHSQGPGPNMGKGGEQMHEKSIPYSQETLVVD

| SMILES | pEC50 |
| --- | --- |
| COc1ccnc(OC)c1-n1c(NS(=O)(=O)[C@@H](C)[C@H](C)c2cnc(C)cn2)nnc1-c1ccccc1 (single isomer, unassigned) [Example 54.0, (2S,3R,P)-N-(4-(2,4-dimethoxy-3-pyridinyl)-5-phenyl-4H-1,2,4-triazol-3-yl)-3-(5-methyl-2-pyrazinyl)-2-butanesulfonamide or (2S,3R,M)-N-(4-(2,4-dimethoxy-3-pyridinyl)-5-phenyl-4H-1,2,4-triazol-3-yl)-3-(5-methyl-2-pyrazinyl)-2-butanesulfonamide] | 7.85 |
| COc1ccnc(OC)c1-n1c(NS(=O)(=O)[C@@H](C)[C@H](C)c2cnc(C)cn2)nnc1-c1ccccc1 (single isomer, unassigned) [Example 55.0, (2S,3R,P)-N-(4-(2,4-dimethoxy-3-pyridinyl)-5-phenyl-4H-1,2,4-triazol-3-yl)-3-(5-methyl-2-pyrazinyl)-2-butanesulfonamide or (2S,3R,M)-N-(4-(2,4-dimethoxy-3-pyridinyl)-5-phenyl-4H-1,2,4-triazol-3-yl)-3-(5-methyl-2-pyrazinyl)-2-butanesulfonamide] | 9.48 |
| COc1cccc(OC)c1-n1c(NS(=O)(=O)[C@H]2C[C@@H](O)CN(c3ncc(F)cn3)C2)nnc1-c1ccccc1 (single isomer, unassigned) [Example 56.0, (3R,5S)-N-(4-(2,6-dimethoxyphenyl)-5-phenyl-4H-1,2,4-triazol-3-yl)-1-(5-fluoro-2-pyrimidinyl)-5-hydroxy-3-piperidinesulfonamide or (3S,5R)-N-(4-(2,6-dimethoxyphenyl)-5-phenyl-4H-1,2,4-triazol-3-yl)-1-(5-fluoro-2-pyrimidinyl)-5-hydroxy-3-piperidinesulfonamide] | 7.52 |
| COc1cccc(OC)c1-n1c(NS(=O)(=O)[C@H]2C[C@@H](O)CN(c3ncc(F)cn3)C2)nnc1-c1ccccc1 (single isomer, unassigned) [Example 57.0, (3R,5S)-N-(4-(2,6-dimethoxyphenyl)-5-phenyl-4H-1,2,4-triazol-3-yl)-1-(5-fluoro-2-pyrimidinyl)-5-hydroxy-3-piperidinesulfonamide or (3S,5R)-N-(4-(2,6-dimethoxyphenyl)-5-phenyl-4H-1,2,4-triazol-3-yl)-1-(5-fluoro-2-pyrimidinyl)-5-hydroxy-3-piperidinesulfonamide] | 8.85 |
| COc1cccc(OC)c1-n1c(NS(=O)(=O)[C@H]2C[C@@H](OC(C)C)CN(c3ncc(F)cn3)C2)nnc1-c1ccccc1 (single isomer, unassigned) [Example 58.0, (3R,5S)-N-(4-(2,6-dimethoxyphenyl)-5-phenyl-4H-1,2,4-triazol-3-yl)-1-(5-fluoro-2-pyrimidinyl)-5-(1-methylethoxy)-3-piperidinesulfonamide or (3S,5R)-N-(4-(2,6-dimethoxyphenyl)-5-phenyl-4H-1,2,4-triazol-3-yl)-1-(5-fluoro-2-pyrimidinyl)-5-(1-methylethoxy)-3-piperidinesulfonamide] | 9.03 |
| COc1cccc(OC)c1-n1c(NS(=O)(=O)[C@H]2C[C@@H](OC(C)C)CN(c3ncc(F)cn3)C2)nnc1-c1ccccc1 (single isomer, unassigned) [Example 59.0, (3R,5S)-N-(4-(2,6-dimethoxyphenyl)-5-phenyl-4H-1,2,4-triazol-3-yl)-1-(5-fluoro-2-pyrimidinyl)-5-(1-methylethoxy)-3-piperidinesulfonamide or (3S,5R)-N-(4-(2,6-dimethoxyphenyl)-5-phenyl-4H-1,2,4-triazol-3-yl)-1-(5-fluoro-2-pyrimidinyl)-5-(1-methylethoxy)-3-piperidinesulfonamide] | 7.07 |
| COc1ncnc(OC)c1-n1c(NS(=O)(=O)[C@H]2C[C@@H](OC(C)C)CN(c3ncc(F)cn3)C2)nnc1-c1ccccc1 (single isomer, unassigned) [Example 64.0, (3R,5S)-N-(4-(4,6-dimethoxy-5-pyrimidinyl)-5-phenyl-4H-1,2,4-triazol-3-yl)-1-(5-fluoro-2-pyrimidinyl)-5-(1-methylethoxy)-3-piperidinesulfonamide or (3S,5R)-N-(4-(4,6-dimethoxy-5-pyrimidinyl)-5-phenyl-4H-1,2,4-triazol-3-yl)-1-(5-fluoro-2-pyrimidinyl)-5-(1-methylethoxy)-3-piperidinesulfonamide] | 8.33 |
| COc1ncnc(OC)c1-n1c(NS(=O)(=O)[C@@H](C)[C@H](OC)c2ncc(C)cn2)nnc1-c1cccc(Br)c1 [Example 1.0, (1R,2S)—N-(5-(3-Bromophenyl)-4-(4,6-dimethoxypyrimidin-5-yl)-4H-1,2,4-triazol-3-yl)-1-methoxy-1-(5-methylpyrimidin-2-yl)propane-2-sulfonamide] | 8.38 |
| COc1ncnc(OC)c1-n1c(NS(=O)(=O)[C@@H](C)[C@H](OC)c2ncc(C)cn2)nnc1-c1cccc(C#N)c1 [Example 2.0, (1R,2S)-N-(5-(3-cyanophenyl)-4-(4,6-dimethoxypyrimidin-5-yl)-4H-1,2,4-triazol-3-yl)-1-methoxy-1-(5-methylpyrimidin-2-yl)propane-2-sulfonamide] | 6.96 |
| COc1ncnc(OC)c1-n1c(NS(=O)(=O)[C@@H](C)[C@H](OC)c2ncc(C)cn2)nnc1-c1cccc(Cl)c1 [Example 3.0, (1R,25)-N-(5-(3-chlorophenyl)-4-(4,6-dimethoxypyrimidin-5-yl)-4H-1,2,4-triazol-3-yl)-1-methoxy-1-(5-methylpyrimidin-2-yl)propane-2-sulfonamide] | 8.28 |
| COc1ncnc(OC)c1-n1c(NS(=O)(=O)[C@@H](C)[C@H](OC)c2ncc(C)cn2)nnc1-c1ccccc1 [Example 4.0, (1R,2S)-N-(4-(4,6-dimethoxypyrimidin-5-yl)-5-phenyl-4H-1,2,4-triazol-3-yl)-1-methoxy-1-(5-methylpyrimidin-2-yl)propane-2-sulfonamide] | 8.54 |
| COc1ncnc(OC)c1-n1c(NS(=O)(=O)[C@@H](C)[C@H](C)c2ncc(C)cn2)nnc1-c1ccccc1 [Example 5.0, (2S,3R)-N-(4-(4,6-dimethoxy-5-pyrimidinyl)-5-phenyl-4H-1,2,4-triazol-3-yl)-3-(5-methyl-2-pyrimidinyl)-2-butanesulfonamide] | 8.64 |
| COc1cccc(-c2nnc(NS(=O)(=O)[C@@H](C)[C@H](OC)c3ncc(C)cn3)n2-c2c(OC)ncnc2OC)c1 [Example 6.0, (1R,2S)-N-(4-(4,6-dimethoxy-5-pyrimidinyl)-5-(3-methoxyphenyl)-4H-1,2,4-triazol-3-yl)-1-methoxy-1-(5-methyl-2-pyrimidinyl)-2-propanesulfonamide] | 8.17 |
| COc1ncnc(OC)c1-n1c(NS(=O)(=O)CCc2ccc(F)cc2C#N)nnc1-c1ccccc1 [Example 10.0, 2-(2-cyano-4-fluorophenyl)-N-(4-(4,6-dimethoxy-5-pyrimidinyl)-5-phenyl-4H-1,2,4-triazol-3-yl)ethanesulfonamide] | 7.38 |
| COc1cccc(OC)c1-n1c(NS(=O)(=O)CCc2ccc(F)cc2C#N)nnc1-c1ccccc1 [Example 12.0, 2-(2-cyano-4-fluorophenyl)-N-(4-(2,6-dimethoxyphenyl)-5-phenyl-4H-1,2,4-triazol-3-yl)ethanesulfonamide] | 8.07 |
| COc1cccc(OC)c1-n1c(NS(=O)(=O)[C@@H](C)[C@@H](OC(C)C)c2ncc(C)cn2)nnc1-c1ccccc1 [Example 13.0, (1S,2S)-N-(4-(2,6-dimethoxyphenyl)-5-phenyl-4H-1,2,4-triazol-3-yl)-1-(1-methylethoxy)-1-(5-methyl-2-pyrimidinyl)-2-propanesulfonamide] | 9.66 |
| COc1ncnc(OC)c1-n1c(NS(=O)(=O)[C@@H](C)[C@@H](OC(C)C)c2ncc(C)cn2)nnc1-c1ccccc1 [Example 14.0, (1S,2S)-N-(4-(4,6-dimethoxy-5-pyrimidinyl)-5-phenyl-4H-1,2,4-triazol-3-yl)-1-(1-methylethoxy)-1-(5-methyl-2-pyrimidinyl)-2-propanesulfonamide] | 9.26 |
| COc1cccc(OC)c1-n1c(NS(=O)(=O)[C@@H](C)[C@H](C)c2ncc(C)cn2)nnc1-c1ccccc1 [Example 15.0, (2S,3R)-N-(4-(2,6-dimethoxyphenyl)-5-phenyl-4H-1,2,4-triazol-3-yl)-3-(5-methyl-2-pyrimidinyl)-2-butanesulfonamide] | 9.05 |
| COc1cccc(OC)c1-n1c(NS(=O)(=O)[C@@H](C)[C@H](C)c2ncc(Cl)cn2)nnc1-c1ccccc1 [Example 16.0, (2S,3R)-3-(5-chloro-2-pyrimidinyl)-N-(4-(2,6-dimethoxyphenyl)-5-phenyl-4H-1,2,4-triazol-3-yl)-2-butanesulfonamide] | 9.70 |
| COc1ncnc(OC)c1-n1c(NS(=O)(=O)[C@@H](C)[C@H](C)c2ncc(Cl)cn2)nnc1-c1ccccc1 [Example 17.0, (2S,3R)-3-(5-chloro-2-pyrimidinyl)-N-(4-(4,6-dimethoxy-5-pyrimidinyl)-5-phenyl-4H-1,2,4-triazol-3-yl)-2-butanesulfonamide] | 9.05 |
| COc1cccc(OC)c1-n1c(NS(=O)(=O)[C@@H](C)[C@H](O)c2ncc(C)cn2)nnc1-c1ccccc1 [Example 18.0, (1R,2S)-N-(4-(2,6-dimethoxyphenyl)-5-phenyl-4H-1,2,4-triazol-3-yl)-1-hydroxy-1-(5-methyl-2-pyrimidinyl)-2-propanesulfonamide] | 9.09 |
| COc1ncnc(OC)c1-n1c(NS(=O)(=O)CCc2ccc(Cl)cc2)nnc1-c1ccccc1 [Example 19.0, 2-(4-chlorophenyl)-N-(4-(4,6-dimethoxy-5-pyrimidinyl)-5-phenyl-4H-1,2,4-triazol-3-yl)ethanesulfonamide] | 7.40 |
| COc1ncnc(OC)c1-n1c(NS(=O)(=O)[C@@H](C)[C@H](O)c2ncc(C)cn2)nnc1-c1ccccc1 [Example 20.0, (1R,2S)-N-(4-(4,6-dimethoxy-5-pyrimidinyl)-5-phenyl-4H-1,2,4-triazol-3-yl)-1-hydroxy-1-(5-methyl-2-pyrimidinyl)-2-propanesulfonamide] | 8.28 |
